# Laboratory results from US10538555B2, “Macrocyclic inhibitors of the PD-1/PD-L1 and CD80(B7-1)/PD-L1 protein/protein interactions” (BRISTOL-MYERS SQUIBB COMPANY, priority 2014, dated 2020).
# *1 amine or outer side, *2 acyl side, *3 side chain or, on linkers, in order; H or OH if unused. Where a SMILES comes first, the peptide text is derived from it. Bridges are numbered along the chain shown (N, C = ends). [ ]: non-standard residue; d: D form. ξ: configuration not given here. Trp(1-CH2COOH) = N[C@@H](Cc1cn(CC(=O)O)c2ccccc12)C(=O)O; Phe(3,4,5-F3) = N[C@@H](Cc1cc(F)c(F)c(F)c1)C(=O)O; Trp(7-aza) = N[C@@H](Cc1c[nH]c2ncccc12)C(=O)O; Phe(3,4-F2) = N[C@@H](Cc1ccc(F)c(F)c1)C(=O)O; Phe(4-F) = N[C@@H](Cc1ccc(F)cc1)C(=O)O; 1Nal = N[C@@H](Cc1cccc2ccccc12)C(=O)O; d(cisHyp) = O=C(O)[C@H]1C[C@@H](O)CN1; Bta = N[C@@H](Cc1csc2ccccc12)C(=O)O; Hyp = O=C(O)[C@@H]1C[C@@H](O)CN1; NMeF = CN[C@@H](Cc1ccccc1)C(=O)O; X1 = O=C([C@H]1COCCN1[*:1])[*:2]; dNMeF = CN[C@H](Cc1ccccc1)C(=O)O; dHyp = O=C(O)[C@H]1C[C@H](O)CN1; NMeL = CN[C@@H](CC(C)C)C(=O)O; NMeNle = CCCC[C@H](NC)C(=O)O; dNle = CCCC[C@@H](N)C(=O)O; hSer = N[C@@H](CCO)C(=O)O; NMeA = CN[C@@H](C)C(=O)O; Orn = NCCC[C@H](N)C(=O)O; Dab = NCC[C@H](N)C(=O)O; Dap = NC[C@H](N)C(=O)O; ξC = NC(CS)C(=O)O; Sar = CNCC(=O)O
# Molecular target: T1, Human PD-L1/PD-1 (Homo sapiens, UniProt Q9NZQ7)
# T1 construct: TVMV protease cleavage site (C); made in house; host or cells: HEK293T cells
# Experiment: HTRF Human PD-L1/PD-1 binding assay (PD-1-Ig/PD-L1-His)
# Settings: PD-L1-His 10 nM, PD-1-Ig 20 nM; class symbol; read-out: HTRF Human PD-L1/PD-1 Binding Assay IC50 Range
# Method in brief: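 Step 1: compound with PD-L1-His (10 nM final), 15 min. Step 2: PD-1-Ig (20 nM final), 15 min. Step 3: Eu-cryptate anti-Ig (1 nM) plus APC anti-His (20 nM), 30 min equilibration. Signal taken as 665 nm/620 nm ratio.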
# T1 sequence (Q9NZQ7 with tags, fused parts or gaps): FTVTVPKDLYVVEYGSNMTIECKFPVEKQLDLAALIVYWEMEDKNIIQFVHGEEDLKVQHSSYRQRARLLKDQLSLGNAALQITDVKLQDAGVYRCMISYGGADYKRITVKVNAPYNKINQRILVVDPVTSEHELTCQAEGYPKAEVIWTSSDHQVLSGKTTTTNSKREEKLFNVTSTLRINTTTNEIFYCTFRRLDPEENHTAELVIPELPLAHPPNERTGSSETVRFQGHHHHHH
row,Compound,IC50 [nM]
1,CCCC[C@H]1C(=O)N(C)[C@@H](CCCC)C(=O)N[C@@H](CCC(=O)O)C(=O)N[C@H](C(=O)NCC(N)=O)CSCC(=O)N[C@@H](Cc2ccc(O)cc2)C(=O)N(C)[C@@H](C)C(=O)N[C@@H](CC(=O)O)C(=O)N2CCC[C@H]2C(=O)N[C@@H](Cc2c[nH]cn2)C(=O)N[C@@H](CCC(N)=O)C(=O)N2C[C@H](O)C[C@H]2C(=O)N[C@@H](Cc2c[nH]c3ccccc23)C(=O)N[C@@H](CCN)C(=O)N[C@@H](Cc2c[nH]c3ccccc23)C(=O)N1C [Example 5218] ({CH2CO}-Y[NMeA]DPHQ[Hyp]W[Dab]W[NMeNle][NMeNle]ECG-NH2; thioether N-14),10 to 99.9
2,CCCC[C@H]1C(=O)N(C)CC(=O)N[C@@H](CC(N)=O)C(=O)N[C@@H](C(C)C)C(=O)N(C)[C@@H](Cc2ccccc2)C(=O)N[C@@H](Cc2ccc(O)cc2)C(=O)N(C)CC(=O)N[C@@H](Cc2c[nH]c3ncccc23)C(=O)N[C@@H](Cc2ccc(O)cc2)C(=O)N[C@@H](CC(C)C)C(=O)N[C@H](C(=O)NCC(N)=O)CSCC(=O)N[C@@H](Cc2ccccc2)C(=O)N(C)[C@@H](Cc2ccccc2)C(=O)N1C [Example 3241] ({CH2CO}-F[NMeF][NMeNle][Sar]NV[NMeF]Y[Sar][Trp(7-aza)]YLCG-NH2; thioether N-13),10 to 99.9
3,CCCC[C@H]1NC(=O)[C@H](Cc2csc3ccccc23)NC(=O)[C@H](CO)NC(=O)[C@H](Cc2c[nH]c3ccccc23)NC(=O)[C@@H]2C[C@@H](O)CN2C(=O)[C@H](CC(C)C)NC(=O)[C@H](Cc2cnc[nH]2)NC(=O)[C@@H]2CCCN2C(=O)[C@H](CC(N)=O)NC(=O)[C@H](C)N(C)C(=O)[C@H](Cc2ccc(O)cc2)NC(=O)CSCC(C(=O)NCC(N)=O)NC(=O)[C@H](CCCNC(=N)N)NC(=O)[C@H](CCCC)N(C)C1=O (stereo partly drawn) [Example 10123] ({CH2CO}-Y[NMeA]NPHL[Hyp]WS[Bta][dNle][NMeNle]R[ξC]G-NH2; thioether N-14),100 to 990
4,CCCC[C@H]1C(=O)N(C)[C@@H](CCCC)C(=O)N[C@@H](CCC(=O)O)C(=O)N[C@H](C(=O)NCC(N)=O)CSCC(=O)N[C@@H](Cc2ccc(O)cc2)C(=O)N(C)[C@@H](C)C(=O)N[C@@H](CC(N)=O)C(=O)N2CCC[C@H]2C(=O)N[C@@H](Cc2c[nH]cn2)C(=O)N[C@@H](CCC(=O)O)C(=O)N2C[C@H](O)C[C@H]2C(=O)N[C@@H](Cc2c[nH]c3ccccc23)C(=O)N[C@@H](CCN)C(=O)N[C@@H](Cc2c[nH]c3ccccc23)C(=O)N1C [Example 5190] ({CH2CO}-Y[NMeA]NPHE[Hyp]W[Dab]W[NMeNle][NMeNle]ECG-NH2; thioether N-14),1 to 9.9
5,CCCC[C@H]1C(=O)N2CCC[C@@H]2C(=O)N[C@@H](CC(=O)O)C(=O)N[C@@H](C(C)C)C(=O)N(C)[C@@H](CC(C)C)C(=O)N[C@@H](CCC(N)=O)C(=O)N2CCC[C@@H]2C(=O)N[C@@H](Cc2c[nH]c3ccccc23)C(=O)N[C@@H](Cc2ccc(O)cc2)C(=O)N[C@@H](CC(C)C)C(=O)N[C@H](C(=O)NCC(N)=O)CSCC(=O)N[C@@H](Cc2ccc(F)cc2)C(=O)N(C)[C@@H](Cc2ccccc2)C(=O)N1C [Example 9253] ({CH2CO}-[Phe(4-F)][NMeF][NMeNle][dP]DV[NMeL]Q[dP]WYLCG-NH2; thioether N-13),1000 to 10000
6,CCCC[C@H]1C(=O)N(C)[C@@H](CCCC)C(=O)N[C@@H](C)C(=O)N[C@H](C(=O)NCC(N)=O)CSCC(=O)N[C@@H](Cc2ccc(O)cc2)C(=O)N(C)[C@@H](C)C(=O)N[C@@H](CC(N)=O)C(=O)N2CCC[C@H]2C(=O)N[C@@H](Cc2cnc[nH]2)C(=O)N[C@@H](CCC(N)=O)C(=O)N2C[C@H](O)C[C@H]2C(=O)N[C@@H](Cc2c[nH]c3ccccc23)C(=O)N[C@@H](CO)C(=O)N[C@@H](Cc2cccc3ccccc23)C(=O)N1C [Example 1289] ({CH2CO}-Y[NMeA]NPHQ[Hyp]WS[1Nal][NMeNle][NMeNle]ACG-NH2; thioether N-14),1 to 9.9
7,"CCCC[C@H]1C(=O)N2C[C@@H](O)C[C@@H]2C(=O)N[C@@H](CC(=O)O)C(=O)N[C@@H](C(C)C)C(=O)N(C)[C@@H](Cc2ccccc2)C(=O)N[C@@H](CCC(=O)O)C(=O)N2C[C@@H](O)C[C@@H]2C(=O)N[C@@H](Cc2c[nH]c3ccccc23)C(=O)N[C@@H](Cc2ccc(O)cc2)C(=O)N[C@@H](CC(C)C)C(=O)N[C@H](C(=O)NCC(N)=O)CSCC(=O)N[C@@H](Cc2cc(F)c(F)c(F)c2)C(=O)N(C)[C@@H](Cc2ccccc2)C(=O)N1C [Example 9275] ({CH2CO}-[Phe(3,4,5-F3)][NMeF][NMeNle][dHyp]DV[NMeF]E[dHyp]WYLCG-NH2; thioether N-13)",1 to 9.9

# Now from value to compound:
row,IC50 [nM],Compound
1,1 to 9.9,"CCCC[C@H]1C(=O)N2CCOC[C@@H]2C(=O)N[C@@H](CC(=O)O)C(=O)N[C@@H](C(C)C)C(=O)N(C)[C@@H](Cc2ccccc2)C(=O)N[C@@H](Cc2ccc(O)cc2)C(=O)N2CCC[C@@H]2C(=O)N[C@@H](Cc2c[nH]c3ccccc23)C(=O)N[C@@H](Cc2ccc(O)cc2)C(=O)N[C@@H](CCOC)C(=O)N[C@H](C(=O)NCC(N)=O)CSCC(=O)N[C@@H](Cc2cc(F)c(F)c(F)c2)C(=O)N(C)[C@@H](Cc2ccccc2)C(=O)N1C [Example 10185] ({CH2CO}-[Phe(3,4,5-F3)][NMeF][NMeNle][X1]DV[NMeF]Y[dP]WY[hSer](Me)CG-NH2; thioether N-13)"
2,1 to 9.9,"CCCC[C@H]1C(=O)N2C[C@H](O)C[C@@H]2C(=O)N[C@@H](CC(=O)O)C(=O)N[C@@H](C(C)C)C(=O)N(C)[C@@H](Cc2ccccc2)C(=O)N[C@@H](CC(=O)O)C(=O)N2C[C@H](O)C[C@@H]2C(=O)N[C@@H](Cc2c[nH]c3ccccc23)C(=O)N[C@@H](Cc2ccc(O)cc2)C(=O)N[C@@H](CC(C)C)C(=O)N[C@H](C(=O)NCC(N)=O)CSCC(=O)N[C@@H](Cc2cc(F)c(F)c(F)c2)C(=O)N(C)[C@@H](Cc2ccccc2)C(=O)N1C [Example 9319] ({CH2CO}-[Phe(3,4,5-F3)][NMeF][NMeNle][d(cisHyp)]DV[NMeF]D[d(cisHyp)]WYLCG-NH2; thioether N-13)"
3,1 to 9.9,"CCCC[C@H]1C(=O)N2C[C@H](O)C[C@@H]2C(=O)N[C@@H](CC(=O)O)C(=O)N[C@@H](C(C)C)C(=O)N(C)[C@H](Cc2ccccc2)C(=O)N[C@@H](CCCN)C(=O)N2C[C@H](O)C[C@@H]2C(=O)N[C@@H](Cc2c[nH]c3ccccc23)C(=O)N[C@@H](Cc2ccc(O)cc2)C(=O)N[C@@H](CC(C)C)C(=O)N[C@H](C(=O)NCC(N)=O)CSCC(=O)N[C@@H](Cc2ccc(F)c(F)c2)C(=O)N(C)[C@@H](Cc2ccccc2)C(=O)N1C [Example 9297] ({CH2CO}-[Phe(3,4-F2)][NMeF][NMeNle][d(cisHyp)]DV[dNMeF][Orn][d(cisHyp)]WYLCG-NH2; thioether N-13)"
4,1 to 9.9,CCCC[C@H]1C(=O)N(C)[C@@H](CCCC)C(=O)N[C@@H](CCCNC(=N)N)C(=O)NC(C(=O)NCC(N)=O)CSCC(=O)N[C@@H](Cc2ccc(O)cc2)C(=O)N(C)[C@@H](C)C(=O)N[C@@H](CC(N)=O)C(=O)N2CCC[C@H]2C(=O)N[C@@H](CCO)C(=O)N[C@@H](CCO)C(=O)N2CCC[C@H]2C(=O)N[C@@H](Cc2c[nH]c3ccccc23)C(=O)N[C@@H](CO)C(=O)N[C@@H](Cc2csc3ccccc23)C(=O)N1C (stereo partly drawn) [Example 10020] ({CH2CO}-Y[NMeA]NP[hSer][hSer]PWS[Bta][NMeNle][NMeNle]R[ξC]G-NH2; thioether N-14)
5,1 to 9.9,CCCC[C@H]1C(=O)N(C)[C@@H](CCCC)C(=O)N[C@@H](CCC(=O)O)C(=O)N[C@H](C(=O)NCC(N)=O)CSCC(=O)N[C@@H](Cc2ccc(O)cc2)C(=O)N(C)[C@@H](C)C(=O)N[C@@H](CC(N)=O)C(=O)N2CCC[C@H]2C(=O)N[C@@H](CN)C(=O)N[C@@H](CCC(N)=O)C(=O)N2C[C@H](O)C[C@H]2C(=O)N[C@@H](Cc2c[nH]c3ccccc23)C(=O)N[C@@H](CCC(=O)O)C(=O)N[C@@H](Cc2c[nH]c3ccccc23)C(=O)N1C [Example 5191] ({CH2CO}-Y[NMeA]NP[Dap]Q[Hyp]WEW[NMeNle][NMeNle]ECG-NH2; thioether N-14)
6,1 to 9.9,CCCC[C@H]1C(=O)N(C)[C@@H](CCCC)C(=O)N[C@@H](CCC(=O)O)C(=O)N[C@H](C(=O)NCC(N)=O)CSCC(=O)N[C@@H](Cc2ccc(O)cc2)C(=O)N(C)[C@@H](C)C(=O)N[C@@H](CC(=O)O)C(=O)N2CCC[C@H]2C(=O)N[C@@H](CN)C(=O)N[C@@H](CCC(N)=O)C(=O)N2C[C@H](O)C[C@H]2C(=O)N[C@@H](Cc2c[nH]c3ccccc23)C(=O)N[C@@H](CCN)C(=O)N[C@@H](Cc2cn(CC(=O)O)c3ccccc23)C(=O)N1C [Example 6189] ({CH2CO}-Y[NMeA]DP[Dap]Q[Hyp]W[Dab][Trp(1-CH2COOH)][NMeNle][NMeNle]ECG-NH2; thioether N-14)
7,1 to 9.9,"CCCC[C@H]1C(=O)N2C[C@H](O)C[C@@H]2C(=O)N[C@@H](CC(=O)O)C(=O)N[C@@H](C(C)C)C(=O)N(C)[C@@H](Cc2ccccc2)C(=O)N[C@@H](CCCN)C(=O)N2CCC[C@@H]2C(=O)N[C@@H](Cc2c[nH]c3ccccc23)C(=O)N[C@@H](Cc2ccc(O)cc2)C(=O)N[C@@H](CCO)C(=O)N[C@H](C(=O)NCC(N)=O)CSCC(=O)N[C@@H](Cc2cc(F)c(F)c(F)c2)C(=O)N(C)[C@@H](Cc2ccccc2)C(=O)N1C [Example 10152] ({CH2CO}-[Phe(3,4,5-F3)][NMeF][NMeNle][d(cisHyp)]DV[NMeF][Orn][dP]WY[hSer]CG-NH2; thioether N-13)"
8,1 to 9.9,CCCC[C@H]1C(=O)N(C)[C@@H](CCCC)C(=O)N[C@@H](CCCNC(=N)N)C(=O)N[C@H](C(=O)NCC(N)=O)CSCC(=O)N[C@@H](Cc2ccc(O)cc2)C(=O)N(C)[C@@H](C)C(=O)N[C@@H](CO)C(=O)N2CCC[C@H]2C(=O)N[C@@H](Cc2cnc[nH]2)C(=O)N[C@@H](CCC(N)=O)C(=O)N2C[C@H](O)C[C@H]2C(=O)N[C@@H](Cc2c[nH]c3ccccc23)C(=O)N[C@@H](CO)C(=O)N[C@@H](Cc2c[nH]c3ccccc23)C(=O)N1C [Example 5178] ({CH2CO}-Y[NMeA]SPHQ[Hyp]WSW[NMeNle][NMeNle]RCG-NH2; thioether N-14)
